# Source: ChEMBL document CHEMBL5346873, “Strategic modification of low-activity natural antimicrobial peptides confers antibacterial potential in vitro and in vivo” (Eur J Med Chem, 2023)
# Activity calls are given as the source filed them. The rule behind the calls is not given here.
# Key:
# [1] = Cytotoxicity against human HaCaT cells incubated for 24 hrs by alamar blue assay; format: toxicity, cell-based; settings: read-out: LD50
# [2] = system: Salmonella typhimurium; assay: Bactericidal activity against Salmonella typhimurium incubated overnight; format: functional, Salmonella enterica subsp. enterica serovar Typhimurium; settings: Salmonella enterica
# [3] = Cytotoxicity against human HaCaT cells incubated for 24 hrs by LDH assay; format: toxicity, cell-based; settings: read-out: LD50
# [4] = system: Vibrio anguillarum; assay: Bactericidal activity against Listonella anguillarum incubated overnight; format: functional
# [5] = system: Vibrio harveyi; assay: Antibacterial activity against Vibrio harveyi incubated for 16 to 20 hrs; format: functional; settings: time 16-20 hrs
# [6] = system: Vibrio vulnificus; assay: Antibiofilm activity against Vibrio vulnificus V1 assessed as inhibition of biofilm formation at 25 to 100 ug/ml incubated for 24 hrs by crystal violet staining based assay; format: functional, organism-based; settings: dose 25-100 µg/ml
# [7] = system: Acinetobacter baumannii; assay: Synergistic antibacterial activity against Acinetobacter baumannii assessed as doxycycline MIC by checkerboard microtiter plate assay; format: functional
# [8] = Dermal toxicity in BALB/c mouse assessed as irritation at 125 mg/kg, TOPp measured after 48 hrs; format: organism-based; settings: in vivo, topical_or_ocular
# [9] = system: Aeromonas hydrophila; assay: Bactericidal activity against Aeromonas hydrophila incubated overnight; format: functional
# [10] = system: Escherichia coli; assay: Bactericidal activity against Escherichia coli incubated overnight; format: functional
# [11] = system: Salmonella enterica; assay: Bactericidal activity against Salmonella enterica incubated overnight; format: functional
# [12] = system: Enterococcus faecalis; assay: Bactericidal activity against Enterococcus faecalis incubated overnight; format: functional
# [13] = system: Vibrio vulnificus; assay: Antibiofilm activity against Vibrio vulnificus 204 assessed as inhibition of biofilm formation at 25 ug/ml incubated for 24 hrs by crystal violet staining based assay; format: functional, organism-based; settings: dose 25.0 µg/ml
# [14] = system: Streptococcus iniae; assay: Additive antibacterial activity against Streptococcus iniae assessed as fractional inhibitory concentration in presence of meropenem by checkerboard microtiter plate assay; format: functional
# [15] = system: Staphylococcus aureus; assay: Bactericidal activity against Staphylococcus aureus incubated for overnight; format: functional
# [16] = system: Vibrio vulnificus; assay: Synergistic antibacterial activity against Vibrio vulnificus assessed as fractional inhibitory concentration in presence of doxycycline by checkerboard microtiter plate assay; format: functional
# [17] = system: Vibrio vulnificus; assay: Antibiofilm activity against Vibrio vulnificus V1 assessed as inhibition of biofilm formation at 50 to 100 ug/ml incubated for 24 hrs by crystal violet staining based assay; format: functional, organism-based; settings: dose 50-100 µg/ml
# [18] = system: Nakaseomyces glabratus; assay: Antifungal activity against Candida glabrata incubated for 16 to 20 hrs; format: functional; settings: time 16-20 hrs
# [19] = system: Klebsiella pneumoniae; assay: Synergistic antibacterial activity against Klebsiella pneumoniae expressing NDM1 assessed as fractional inhibitory concentration in presence of doxycycline by checkerboard microtiter plate assay; format: functional
# [20] = system: Enterococcus faecium; assay: Antibacterial activity against Enterococcus faecium incubated for 16 to 20 hrs; format: functional; settings: time 16-20 hrs
# [21] = system: Klebsiella pneumoniae; assay: Synergistic antibacterial activity against Klebsiella pneumoniae expressing NDM1 assessed as doxycycline MIC by checkerboard microtiter plate assay; format: functional
# [22] = system: Klebsiella aerogenes; assay: Synergistic antibacterial activity against Enterobacter aerogenes assessed as meropenem MIC by checkerboard microtiter plate assay; format: functional
# [23] = system: Acinetobacter baumannii; assay: Synergistic antibacterial activity against Acinetobacter baumannii in presence of doxycycline by checkerboard microtiter plate assay; format: functional
# [24] = system: Escherichia coli; assay: Synergistic antibacterial activity against Escherichia coli assessed as meropenem MIC by checkerboard microtiter plate assay; format: functional
# [25] = system: Streptococcus agalactiae; assay: Synergistic antibacterial activity against Streptococcus agalactiae in presence of meropenem by checkerboard microtiter plate assay; format: functional
# [26] = system: Salmonella enterica; assay: Antibacterial activity against Salmonella enterica incubated for 16 to 20 hrs; format: functional; settings: time 16-20 hrs
# [27] = system: Vibrio harveyi; assay: Bactericidal activity against Vibrio harveyi incubated overnight; format: functional
# [28] = system: Acinetobacter baumannii; assay: Additive antibacterial activity against Acinetobacter baumannii in presence of meropenem by checkerboard microtiter plate assay; format: functional
# [29] = system: Klebsiella aerogenes; assay: Synergistic antibacterial activity against Enterobacter aerogenes assessed as fractional inhibitory concentration in presence of meropenem by checkerboard microtiter plate assay; format: functional
# [30] = system: Pseudomonas aeruginosa; assay: Additive antibacterial activity against Pseudomonas aeruginosa in presence of meropenem by checkerboard microtiter plate assay; format: functional
# [31] = system: Escherichia coli; assay: Antibacterial activity against Escherichia coli incubated for 16 to 20 hrs; format: functional; settings: time 16-20 hrs
# [32] = system: Vibrio vulnificus; assay: Synergistic antibacterial activity against Vibrio vulnificus assessed as doxycycline MIC by checkerboard microtiter plate assay; format: functional
# [33] = system: Vibrio vulnificus; assay: Antibacterial activity against Vibrio vulnificus V3 incubated for 16 to 20 hrs; format: functional; settings: time 16-20 hrs
# [34] = system: Cell membrane; assay: Induction of membrane depolarization in Vibrio vulnificus at 100 ug/ml by DiBAC4(3) dye based fluorescence analysis; format: subcellular; settings: dose 100.0 µg/ml
# [35] = system: Edwardsiella tarda; assay: Antibacterial activity against Edwardsiella tarda incubated for 16 to 20 hrs; format: functional; settings: time 16-20 hrs
# [36] = system: Klebsiella pneumoniae; assay: Synergistic antibacterial activity against Klebsiella pneumoniae expressing NDM1 in presence of doxycycline by checkerboard microtiter plate assay; format: functional
# [37] = system: Vibrio vulnificus; assay: Antibacterial activity against Vibrio vulnificus in presence of 0.1 ug/ml trypsin; format: functional, organism-based
# [38] = system: Vibrio vulnificus; assay: Bactericidal activity against Vibrio vulnificus V2 incubated overnight; format: functional
# [39] = system: Vibrio vulnificus; assay: Synergistic antibacterial activity against Vibrio vulnificus in presence of doxycycline by checkerboard microtiter plate assay; format: functional
# [40] = system: Escherichia coli; assay: Synergistic antibacterial activity against Escherichia coli in presence of meropenem by checkerboard microtiter plate assay; format: functional
# [41] = system: Vibrio vulnificus; assay: Antibiofilm activity against Vibrio vulnificus V3 assessed as inhibition of biofilm formation at 25 to 100 ug/ml incubated for 24 hrs by crystal violet staining based assay; format: functional, organism-based; settings: dose 25-100 µg/ml
# [42] = system: Streptococcus iniae; assay: Additive antibacterial activity against Streptococcus iniae in presence of meropenem by checkerboard microtiter plate assay; format: functional
# [43] = system: Vibrio vulnificus; assay: Antibiofilm activity against Vibrio vulnificus 204 assessed as inhibition of biofilm formation at 25 to 100 ug/ml incubated for 24 hrs by crystal violet staining based assay; format: functional, organism-based; settings: dose 25-100 µg/ml
# [44] = system: Vibrio vulnificus; assay: Antibacterial activity against Vibrio vulnificus in presence of 1 to 10 ug/ml trypsin; format: functional, organism-based
# [45] = system: Pseudomonas aeruginosa; assay: Bactericidal activity against Pseudomonas aeruginosa incubated overnight; format: functional
# [46] = system: Klebsiella aerogenes; assay: Antibacterial activity against Enterobacter aerogenes incubated for 16 to 20 hrs; format: functional; settings: time 16-20 hrs
# [47] = system: Klebsiella oxytoca; assay: Antibacterial activity against Klebsiella oxytoca incubated for 16 to 20 hrs; format: functional; settings: time 16-20 hrs
# [48] = system: Streptococcus iniae; assay: Additive antibacterial activity against Streptococcus iniae assessed as meropenem MIC by checkerboard microtiter plate assay; format: functional
# [49] = system: Streptococcus iniae; assay: Antibacterial activity against Streptococcus iniae incubated for 16 to 20 hrs; format: functional; settings: time 16-20 hrs
# [50] = system: Vibrio vulnificus; assay: Synergistic antibacterial activity against Vibrio vulnificus assessed as meropenem MIC by checkerboard microtiter plate assay; format: functional
# [51] = system: Streptococcus iniae; assay: Synergistic antibacterial activity against Streptococcus iniae assessed as fractional inhibitory concentration in presence of doxycycline by checkerboard microtiter plate assay; format: functional
# [52] = system: Aeromonas hydrophila; assay: Antibacterial activity against Aeromonas hydrophila incubated for 16 to 20 hrs; format: functional; settings: time 16-20 hrs
# [53] = system: Candida tropicalis; assay: Antifungal activity against Candida tropicalis incubated for 16 to 20 hrs; format: functional; settings: time 16-20 hrs
# [54] = system: Staphylococcus haemolyticus; assay: Antibacterial activity against Staphylococcus haemolyticus incubated for 16 to 20 hrs; format: functional; settings: time 16-20 hrs
# [55] = system: Vibrio vulnificus; assay: Antibiofilm activity against Vibrio vulnificus V2 assessed as inhibition of biofilm formation at 50 to 100 ug/ml incubated for 24 hrs by crystal violet staining based assay; format: functional, organism-based; settings: dose 50-100 µg/ml
# [56] = system: Vibrio vulnificus; assay: Bactericidal activity against Vibrio vulnificus V1 incubated overnight; format: functional
# [57] = system: Cell membrane; assay: Induction of membrane deformation in Vibrio vulnificus at 1 to 2 times MIC incubated for 30 mins by SEM analysis; format: subcellular
# [58] = system: Pseudomonas aeruginosa; assay: Additive antibacterial activity against Pseudomonas aeruginosa assessed as meropenem MIC by checkerboard microtiter plate assay; format: functional
substance,measurement,setting,value
H-FKWKSVLKGVKGFVKGYF-OH,CC50 at 24 h,[1],> 100 µg/mL
same,MBC,[2],12.5 µg/mL
same,CC50 at 24 h,[3],> 100 µg/mL
same,MBC,[4],100 µg/mL
same,MIC,[5],> 100 µg/mL
same,Activity,[6],Active
same,MIC,[7],0.003 µg/mL
same,Activity,[8],Non-Toxic
same,MBC,[9],> 100 µg/mL
same,MBC,[10],6.25 µg/mL
same,MBC,[11],12.5 µg/mL
same,MBC,[12],> 100 µg/mL
same,Activity,[13],inactive
same,FIC,[14],0.51
same,MBC,[15],50 µg/mL
same,FIC,[16],0.14
same,Activity,[17],Active
same,MIC,[18],> 100 µg/mL
same,FIC,[19],0.18
same,MIC,[20],25 µg/mL
same,MIC,[21],1.56 µg/mL
same,MIC,[22],0.003 µg/mL
same,MIC,[23],0.048 µg/mL
same,MIC,[24],0.001 µg/mL
same,MIC,[25],0.097 µg/mL
same,MIC,[26],12.5 µg/mL
same,MBC,[27],> 100 µg/mL
same,MIC,[28],0.048 µg/mL
same,FIC,[29],0.14
same,MIC,[30],6.25 µg/mL
same,MIC,[31],6.25 µg/mL
same,MIC,[32],0.006 µg/mL
same,MIC,[33],12.5 µg/mL
same,Activity,[34],Active
same,MIC,[35],50 µg/mL
same,MIC,[36],1.56 µg/mL
same,Activity,[37],Active
same,MBC,[38],12.5 µg/mL
same,MIC,[39],0.097 µg/mL
same,MIC,[40],0.097 µg/mL
same,Activity,[41],Active
same,MIC,[42],0.024 µg/mL
same,Activity,[43],Active
same,Activity,[44],Active
same,MBC,[45],50 µg/mL
same,MIC,[46],12.5 µg/mL
same,MIC,[47],25 µg/mL
same,MIC,[48],0.195 µg/mL
same,MIC,[49],< 1.56 µg/mL
same,MIC,[50],0.003 µg/mL
same,FIC,[51],0.04
same,MIC,[52],> 100 µg/mL
same,MIC,[53],50 µg/mL
same,MIC,[54],< 1.56 µg/mL
same,Activity,[55],Active
same,MBC,[56],12.5 µg/mL
same,Activity,[57],Active
same,MIC,[58],0.195 µg/mL
